Patent US10654853B2, “Spiro-condensed pyrrolidine derivatives as deubiquitylating enzymes (DUB) inhibitors” (MISSION THERAPEUTICS LIMITED, priority 2016, dated 2020)

target: Cezanne 1 (Homo sapiens (Human), UniProt Q6GQQ9); assay: Cezanne 1 biochemical IC50 assay (fluorescence polarisation, TAMRA labelled peptide linked to ubiquitin); conditions: Cezanne 1 biochemical IC50 assay; 30 min pre-incubation, read after 2 hr at room temperature; read-out: IC50 range
Description: The Cezanne 1 construct was PCR amplified and cloned into a pFLAG-CMV-6c vector (Sigma-Aldrich) with an N-terminal FLAG tag. HEK293T cells were transfected with FLAG-Cezanne 1 using TransIT-LT1 transfection reagent (Mirus) according to the manufacturer's instructions. Cells were harvested 48 hours after transfection. […] The resin was washed two times with low salt buffer and one time with high salt buffer (20 mM Tris, pH 7.5, 500 mM NaCl, 0.5 mM EDTA, 5 mM beta-mercaptoethanol, protease inhibitors (complete mini, Roche) and phosphatase inhibitors (PhosSTOP mini, Roche). To elute the bound Cezanne 1, elution buffer (10 mM Tris, pH 7.5, 150 mM NaCl, 0.5 mM EDTA, 10% glycerol, 0.5% NP40, 5 mM beta-mercaptoethanol, 0.15 mg/ml 3× FLAG peptide (Sigma-Aldrich)) was added to the resin and incubated at 4° C. for 2.5 hours while rotating. The resin was centrifuged at 4000 rpm for 30 seconds, and the supernatant containing purified FLAG-Cezanne 1 was removed and stored at −80° C. […] Dilution plates were prepared at 21 times the final concentration (2100 μM for a final concentration of 100 μM) in 50% DMSO in a 96-well polypropylene V-bottom plate (Greiner #651201). […] Reactions were performed in duplicate in black 384 well plates (small volume, Greiner 784076) in a final reaction volume of 21 μl. Either 1 μl of 50% DMSO or diluted compound was added to the plate. Cezanne 1 was diluted in reaction buffer (40 mM Tris, pH 7.5, 0.005% Tween 20, 0.5 mg/ml BSA, 5 mM—beta-mercaptoethanol) to the equivalent of 0.005 μl/well and 10 μl of diluted Cezanne 1 was added to the compound. Enzyme and compound were incubated for 30 min at room temp. Reactions were initiated by the addition of 50 nM of TAMRA labelled peptide linked to ubiquitin via an iso-peptide bond as fluorescence polarisation substrate. Reactions were read immediately after addition of substrate and following a 2 hr incubation at room temperature. Readings were performed on a Pherastar Plus (BMG Labtech). λ Excitation 540 nm; λ Emission 590 nm.

Chain of Cezanne 1 (Q6GQQ9 whole entry): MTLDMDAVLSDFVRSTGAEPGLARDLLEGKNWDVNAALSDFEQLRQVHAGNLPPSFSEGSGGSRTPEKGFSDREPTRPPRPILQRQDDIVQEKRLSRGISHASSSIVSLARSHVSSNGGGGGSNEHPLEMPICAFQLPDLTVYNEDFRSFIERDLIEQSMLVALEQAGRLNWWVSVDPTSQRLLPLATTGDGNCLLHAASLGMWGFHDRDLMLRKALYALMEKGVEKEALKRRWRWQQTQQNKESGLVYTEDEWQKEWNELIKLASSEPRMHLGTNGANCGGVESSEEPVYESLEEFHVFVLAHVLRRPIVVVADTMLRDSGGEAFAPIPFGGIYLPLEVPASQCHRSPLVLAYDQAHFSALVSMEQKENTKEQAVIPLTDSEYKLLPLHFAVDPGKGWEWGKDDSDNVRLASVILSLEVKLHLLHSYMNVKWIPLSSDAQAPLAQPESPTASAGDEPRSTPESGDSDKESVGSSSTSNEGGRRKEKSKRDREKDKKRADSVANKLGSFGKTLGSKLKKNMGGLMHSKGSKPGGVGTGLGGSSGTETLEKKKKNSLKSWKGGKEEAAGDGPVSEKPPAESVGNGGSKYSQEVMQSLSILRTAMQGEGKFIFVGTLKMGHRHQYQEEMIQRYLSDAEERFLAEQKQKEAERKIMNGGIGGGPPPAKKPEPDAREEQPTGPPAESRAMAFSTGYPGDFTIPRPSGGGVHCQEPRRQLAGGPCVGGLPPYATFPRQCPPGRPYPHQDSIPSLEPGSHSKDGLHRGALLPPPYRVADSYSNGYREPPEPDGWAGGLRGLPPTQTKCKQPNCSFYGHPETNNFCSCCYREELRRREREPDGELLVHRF

SMILES	IC50 [µM]
C[C@H]1NC(=O)C2(CCN(C#N)C2)NC1=O (stereo partly drawn) [Example 76, (8R)-8-Methyl-7,10-dioxo-2,6,9-triazaspiro[4.5]decane-2-carbonitrile]	1 to 10
N#CN1CCC2(C1)NC(=O)CNC2=O (centres unmarked) [Example 77, 7,10-Dioxo-2,6,9-triazaspiro[4.5]decane-2-carbonitrile]	1 to 10
C[C@@H]1NC(=O)C2(CCN(C#N)C2)NC1=O (stereo partly drawn) [Example 78, (8S)-8-Methyl-7,10-dioxo-2,6,9-triazaspiro[4.5]decane-2-carbonitrile]	1 to 10
N#CN1CCC2(C1)NC(=O)C(c1ccccc1)NC2=O (centres unmarked) [Example 79, 7,10-Dioxo-8-phenyl-2,6,9-triazaspiro[4.5]decane-2-carbonitrile]	1 to 10
CCC1CC2(CCN(C#N)C2)C(=O)N1 (centres unmarked) [Example 80, 8-Ethyl-6-oxo-2,7-diazaspiro[4.4]nonane-2-carbonitrile]	> 10
N#CN1CCC2(CC(Cc3ccccc3)NC2=O)C1 (centres unmarked) [Example 81, 8-Benzyl-6-oxo-2,7-diazaspiro[4.4]nonane-2-carbonitrile]	1 to 10
N#CN1CCC2(C1)OCc1ccccc1NC2=O (centres unmarked) [Example 85, 2-Oxo-1,5-dihydro-2H-spiro[benzo[e][1,4]oxazepine-3,3′-pyrrolidine]-1′-carbonitrile]	1 to 10
N#CN1CCC2(Cc3ccc(-c4cccc(OC(F)(F)F)c4)cc3NC2=O)C1 (centres unmarked) [Example 88, 2′-Oxo-7′-(3-(trifluoromethoxy)phenyl)-1′,4′-dihydro-2′H-spiro[pyrrolidine-3,3′-quinoline]-1-carbonitrile]	1 to 10
CN(C)C(=O)c1ccc(-c2ccc3c(c2)NC(=O)C2(CCN(C#N)C2)C3)cc1 (centres unmarked) [Example 89, 4-(1-Cyano-2′-oxo-1′,4′-dihydro-2′H-spiro[pyrrolidine-3,3′-quinolin]-7′-yl)-N,N-dimethylbenzamide]	1 to 10
N#CN1CCC2(Cc3cc(-c4ccc(Oc5ccccc5)cc4)ccc3NC2=O)C1 (centres unmarked) [Example 96, 2′-Oxo-6′-(4-phenoxyphenyl)-1′,4′-dihydro-2′H-spiro[pyrrolidine-3,3′-quinoline]-1-carbonitrile]	1 to 10
Cn1cc(-c2ccc3c(c2)CC2(CCN(C#N)C2)C(=O)N3)cn1 (centres unmarked) [Example 97, 6′-(1-Methyl-1H-pyrazol-4-yl)-2′-oxo-1′,4′-dihydro-2′H-spiro[pyrrolidine-3,3′-quinoline]-1-carbonitrile]	0.1 to 1

Other lines, results leading:

IC50 [µM]	SMILES
0.1 to 1	N#CN1CC[C@@]2(C1)Oc1ncc(-c3ccc(F)cc3)cc1NC2=O [Example 74, (S)-7-(4-Fluorophenyl)-2-oxo-1,2-dihydrospiro[pyrido[2,3-b][1,4]oxazine-3,3′-pyrrolidine]-1′-carbonitrile]
0.1 to 1	N#Cc1cccc(-c2cnc3c(c2)NC(=O)[C@@]2(CCN(C#N)C2)N3)c1 [Example 75, (S)-7-(3-Cyanophenyl)-2-oxo-1,4-dihydro-2H-spiro[pyrido[2,3-b]pyrazine-3,3′-pyrrolidine]-1′-carbonitrile]
0.1 to 1	N#CN1CCC2(CNc3ncccc3NC2=O)C1 (centres unmarked) [Example 86, 2-Oxo-1,2,4,5-tetrahydrospiro[pyrido[2,3-b][1,4]diazepine-3,3′-pyrrolidine]-1′-carbonitrile]
0.1 to 1	CC1(c2ccccc2)NC(=O)C2(CCN(C#N)C2)NC1=O (centres unmarked) [Example 87, 8-Methyl-7,10-dioxo-8-phenyl-2,6,9-triazaspiro[4.5]decane-2-carbonitrile]
0.1 to 1	Cn1nccc1-c1ccc2c(c1)CC1(CCN(C#N)C1)C(=O)N2 (centres unmarked) [Example 94, 6′-(1-Methyl-1H-pyrazol-5-yl)-2′-oxo-1′,4′-dihydro-2′H-spiro[pyrrolidine-3,3′-quinoline]-1-carbonitrile]
0.1 to 1	N#CN1CCC2(Cc3cc(-c4cccc(OC(F)(F)F)c4)ccc3NC2=O)C1 (centres unmarked) [Example 95, 2′-Oxo-6′-(3-(trifluoromethoxy)phenyl)-1′,4′-dihydro-2′H-spiro[pyrrolidine-3,3′-quinoline]-1-carbonitrile]
